PMC6091370, “Preclinical Evaluation of [^18F]LCATD as a PET Tracer to Study Drug-Drug Interactions Caused by Inhibition of Hepatic Transporters” (Contrast Media & Molecular Imaging, 2018)
Several values for one entry are separate records, joined by “and”; a condition that tells them apart may be missing. Equal entries are not always repeated.

Tests used:
[1] = Dynamic PET/CT imaging of hepatic uptake and biliary excretion of [18F]LCATD in rats; type: in vivo, rat; details: for CLuptake,in vivo (in vivo hepatic uptake clearance): Patlak integration plot 0–3 min; for CLuptake,in vivo (in vivo hepatic uptake clearance) / t max (time to maximum peak concentration in liver) / AUCbile 0–10 min (radioactivity in the gastrointestinal tract) / AUCliver 0–5 min / AUCliver 0–30 min / CLint,bile (intrinsic biliary clearance of the radiotracer) / Kp liver 0−5 min (apparent liver-to-blood AUC0–5 min ratio) / Cmax,liver (maximum measured activity in the liver): n=3
Description: PET scans were performed with a preclinical PET/CT SEDECAL ARGUS scanner (SEDECAL, Spain) housed in a temperature-controlled suite. The scanner has two 11.8 cm diameter rings of photoswitch detectors coupled to position-sensitive photomultiplier tubes, giving a 4.8 cm axial and 7.5 cm transaxial field of view (FOV). All animals were cannulated (Venisystem Butterfly, Abbott Ireland) in the tail vein for tracer injection under general anaesthesia with isoflurane (IsoFlo 100% w/w, Abbott Laboratories Ltd) 2.5% (2 L·min^−1 oxygen flow). Animals were divided into three groups: control group (administered with [ ^18 F]LCATD only, 3 animals), rifamycin SV-treated group (3 animals) and fusidate-treated group (3 animals). All the animals were scanned in supine position. At the start of the scan, [ ^18 F]LCATD (5–15 MBq per body) was injected as a single bolus into the tail vein. Administered radioactivity was measured as the net counts in the syringe before and after the injection with an ionization chamber (Capintec CRC-15PET; Ramsey, New Jersey). The mass amount of [ ^18 F]LCATD administered per animal was estimated to be between 0.2 and 1 nmol. For inhibition experiments, rifamycin SV was administrated 45 minutes before the start of the scan at a dose of 50mg·Kg^−1 (intraperitoneally) and at the time of the tracer injection at a dose of 12.5 mg·Kg^−1 (intravenously). For the in vivo assessment of the inhibitory effect of sodium fusidate on the hepatobiliary transport of the tracer, the drug was administrated at a dose of 20 mg·Kg^−1 (intraperitoneally) 30 minutes before the scan and at a dose of 10 mg·Kg^−1 (intravenously) after 15 minutes from the tracer injection. Emission scans in 3D list-mode were acquired for 30 minutes (with a FOV encompassing part of the thorax and the intestine) followed by a 5 minutes CT scan. PET acquisitions were obtained with an energy window set to 250–700 keV and corrections for dead-time, activity decay, attenuation, random, and scatter counts were applied (using the manufacturer' software). The dynamic images were obtained by sorting the list mode data into the following time frames: 6 × 10 s, 8 × 30 s, 10 × 60 s, and 3 × 300 s, and images were reconstructed with a FORE/2D-OSEM reconstruction algorithm (provided by the manufacturer). Sampling at shorter intervals during early time-points enabled us to detect rapid increments of tracer uptake in the liver and intestine. […] A 5-minute PET scan of the injection site at the end of the CT was obtained to ensure successful intravenous injection. Cross calibration between the ionization chamber and the PET scanner was carried out by using a cylindrical phantom made of Perspex with internal diameter of 43 mm and length of 37 mm. 10 to 20 minute PET scans of the phantom filled with an average of about 4.20 MBq of [ ^18 F]LCATD in 60 g of water were acquired (average dead-time value 4%).
The registered PET and CT images were transferred from the scanner to a processing workstation, and subsequent analysis was carried out using Pmod (Pmod Technologies, CH) version 3.2. Regions of interest (ROIs) corresponding to abdominal aorta, liver, and gastrointestinal tract were defined via a combination of manual and threshold methods (Supplementary Figure 1 and movie) using PMOD software (PMOD Technologies). The stomach was included in the gastrointestinal ROI to include the amount of bile that might have refluxed from the duodenum into the stomach.
Uptake hepatic clearance CLuptake,in vivo was calculated by integration plots obtained applying the Patlak method in Pmod (Pmod Technologies, CH) version 3.2, limiting the linear fit to the uptake phase (0–3 min).
Intrinsic biliary clearance of the radiotracer CLint,bile was determined as proposed by Takashima et al. by quantification of the radiotracer in the liver and the intestine (as amount of radiotracer excreted into the bile).

[2] = Postmortem metabolites analysis by radio-HPLC; type: in vivo, rat; details: 50 min postinjection
Description: Analysis of metabolites in the blood, liver, and bile (extracted from the intestine) was performed via radio-HPLC. Blood samples, collected by cardiac puncture at the end of the PET-CT scan, were treated with an equal volume of acetonitrile, centrifuged for 1 minute at 1000 rpm and the supernatant was injected in radio-HPLC (Shimadzu Prominence HPLC system equipped with a PDA UV detector and HERM LB500 activity detector and Phenomenex Luna C18 column, 5 μm, 100 Å, 250 × 4.6 mm, injection volume 20 µL, PBS/CH3CN 60 : 40, isocratic elution, flow: 1 mL·min^−1). Samples of the liver and duodenum were collected at the end of the PET-CT scan (after euthanasia) homogenated with methanol (80% in water, 5 mL per gram of biological sample) by means of a homogenizer and centrifuged for 1 minute at 1000 rpm and the supernatant was injected in radio-HPLC.

NTCP [3] = test system: NTCP; design: method as in PMID 28011201; details: in vitro; cited from earlier work
OATP1B3 = test system: OATP1B3; design: method as in PMID 28011201; details: in vitro; cited from earlier work
BSEP [4] = test system: BSEP; design: method as in PMID 28011201; details: in vitro; cited from earlier work
[5] = Postmortem biodistribution of the tracer (gamma counting, 50 min postinjection); type: in vivo, rat; details: for activity in the terminal blood sample versus control: p < 0.05
Description: Samples of the liver, heart, and kidney were collected at the end of the PET-CT scan (after euthanasia) and homogenised with methanol (80% in water, 5 mL per gram of biological sample) by means of a homogenizer. Samples were stored in preweighed plastic vials. Terminal blood was collected by cardiac puncture just before euthanasia. The activity of the homogenates and blood samples was measured by means of a precalibrated gamma counter as soon as possible after the PET experiment.

[6] = design: method as in PMID 28011201; details: in vitro; cited from earlier work
OATP1B1 [7] = test system: OATP1B1; design: method as in PMID 28011201; details: in vitro; cited from earlier work
MRP2 transporter = test system: MRP2 transporter; design: method as in PMID 27676153; details: 0.3–300 µM, increased efflux of LTC4, MRP2 transfected membrane vesicles; cited from earlier work
BSEP [8] = details: read-out: IC50 for BSEP; cited from earlier work
NTCP [9] = details: cited from earlier work
OATP1B1 [10] = details: cited from earlier work
[11] = rifamycin SV-treated rats (total dose 62.5 mg·Kg^−1)

C[C@H](CCC(=O)NC(Cc1cn(CCCC[18F])nn1)C(=O)O)[C@H]1CC[C@H]2[C@@H]3CC[C@@H]4C[C@H](O)CC[C@]4(C)[C@H]3CC[C@]12C (some centres unmarked) [[ ^18 F]LCATD, LithoCholic Acid Triazole Derivative]
activity in the liver 2 minutes after tracer injection ([1]; control rats): 14.2 ± 0.8%
maximum activity recorded in the liver ([1]; control rats): 14.2 ± 0.8 % of the injected dose
residual activity in the liver after 30 minutes ([1]; control rats): 1.04 ± 0.17 % of the injected dose
CLuptake,in vivo (in vivo hepatic uptake clearance) ([1]; control rats, image-derived blood input): 2.09 ± 0.27 mL/min/g
t max (time to maximum peak concentration in liver) ([1]; control rats, [18F]LCATD only, iv bolus): 2.25 min
AUCbile 0–10 min (radioactivity in the gastrointestinal tract) ([1]; control rats): 89 ± 1 % ID·min·mL^−1
AUCliver 0–5 min ([1]; control rats): 58 ± 1 % ID·min·mL^−1
AUCliver 0–30 min ([1]; control rats): 110 ± 15 % ID·min·mL^−1
CLint,bile (intrinsic biliary clearance of the radiotracer) ([1]; control rats): 0.17 ± 0.03 mL/min/g
Kp liver 0−5 min (apparent liver-to-blood AUC0–5 min ratio) ([1]; control rats): 3.64 ± 0.09
activity in the liver after 30 minutes ([1]; fusidate-treated rats): 1.02 ± 0.02 % of the injected dose
t max (time to maximum peak concentration in liver) ([1]; fusidate-treated rats (20 mg·Kg^−1 ip 30 min before scan + 10 mg·Kg^−1 iv 15 min after tracer injection)): 2.25 min
maximum activity recorded in the liver ([1]; fusidate-treated rats (30 mg·Kg^−1)): 11.5 ± 0.3 % of the injected dose
CLuptake,in vivo (in vivo hepatic uptake clearance) ([1]; fusidate-treated rats): 1.40 ± 0.13^∗ mL·min^−1·g^−1
AUCbile 0–10 min (radioactivity in the gastrointestinal tract) ([1]; fusidate-treated rats): 93 ± 19 % ID·min·mL^−1
AUCliver 0–5 min ([1]; fusidate-treated rats): 48 ± 0.3^∗ % ID·min·mL^−1
AUCliver 0–30 min ([1]; fusidate-treated rats): 89 ± 11 % ID·min·mL^−1
CLint,bile (intrinsic biliary clearance of the radiotracer) ([1]; fusidate-treated rats): 0.36 ± 0.03^∗ mL·min^−1·g^−1
Cmax,liver (maximum measured activity in the liver) ([1]; fusidate-treated rats): 11.5 ± 0.3^∗ % ID·mL^−1
Kp liver 0−5 min (apparent liver-to-blood AUC0–5 min ratio) ([1]; fusidate-treated rats): 2.451 ± 0.016
activity in the liver 2 minutes after tracer injection ([1]; rifamycin SV-treated rats): 8.0 ± 0.6%
activity in the liver after 30 minutes ([1]; rifamycin SV-treated rats): 1.87 ± 0.13 % of the injected dose
t max (time to maximum peak concentration in liver) ([1]; rifamycin SV-treated rats (50 mg·Kg^−1 ip 45 min before scan + 12.5 mg·Kg^−1 iv at tracer injection)): 3.75 min
delay of t max relative to control rats [1, 11]: 1.5 min
maximum activity recorded in the liver [1, 11]: 10.2 ± 0.9 % of the injected dose and 10.2 ± 1.0 % of the injected dose
CLuptake,in vivo (in vivo hepatic uptake clearance) ([1]; rifamycin SV-treated rats): 0.71 ± 0.05^∗ mL·min^−1·g^−1
AUCbile 0–10 min (radioactivity in the gastrointestinal tract) ([1]; rifamycin SV-treated rats): 53 ± 3^∗ % ID·min·mL^−1
AUCliver 0–5 min ([1]; rifamycin SV-treated rats): 44 ± 4^∗ % ID·min·mL^−1
AUCliver 0–30 min ([1]; rifamycin SV-treated rats): 139 ± 9 % ID·min·mL^−1
CLint,bile (intrinsic biliary clearance of the radiotracer) ([1]; rifamycin SV-treated rats): 0.12 ± 0.03 mL/min/g
Cmax,liver (maximum measured activity in the liver) ([1]; rifamycin SV-treated rats): 10.2 ± 0.9^∗ % ID·mL^−1
Kp liver 0−5 min (apparent liver-to-blood AUC0–5 min ratio) ([1]; rifamycin SV-treated rats): 2.07 ± 0.17
activity in the liver 2 minutes after tracer injection ([1]; sodium fusidate-treated rats): 11.4 ± 0.4%
metabolic stability of the tracer ([2]; in vivo, rat): at least 90%
share of activity in intestine extracts as twin peak matching [18F]LCATD ([2]; radio-HPLC, intestine extracts of two control animals): over 90%
transport by uptake transporter NTCP (NTCP [3]): substrate
transport by OATP1B3 (OATP1B3): low affinity substrate
transport by efflux transporter BSEP (BSEP [4]): excreted into the bile via the efflux transporter BSEP
activity in the terminal blood sample versus control ([5]; fusidate-treated rats): significantly increased
activity in the kidneys ([5]; postmortem): < 0.1 % of the injected dose
activity in the terminal blood sample versus control ([5]; rifamycin SV-treated rats): significantly increased
passive permeability [6]: low
transport by uptake transporter OATP1B1 (OATP1B1 [7]): substrate

CC(=O)O[C@H]1C[C@@]2(C)[C@@H](C[C@@H](O)[C@H]3[C@@]4(C)CC[C@@H](O)[C@@H](C)[C@@H]4CC[C@@]32C)/C1=C(\CCC=C(C)C)C(=O)O [fusidic acid]
effect on MRP2 transporter (canalicular efflux) in vitro (MRP2 transporter): stimulate

CO[C@H]1/C=C/O[C@@]2(C)Oc3c(C)c(O)c4c(O)c(cc(O)c4c3C2=O)NC(=O)/C(C)=C\C=C\[C@H](C)[C@H](O)[C@@H](C)[C@@H](O)[C@@H](C)[C@H](OC(C)=O)[C@@H]1C [rifamycin SV]
IC50 (BSEP [8]): 6.3 µM
Ki (NTCP [9]; read-out: K i for NTCP): > 63 µM
IC50 (OATP1B1 [10]): 0.2 to 0.4 µM

CC(=O)O[C@H]1C[C@@]2(C)[C@@H](C[C@@H](O)[C@H]3[C@@]4(C)CC[C@@H](O)[C@@H](C)[C@@H]4CC[C@@]32C)/C1=C(\CCC=C(C)C)C(=O)O [sodium fusidate]
IC50 (BSEP [8]): 3.8 to 11.5 µM
IC50 (NTCP [9]): 44 µM
IC50 (OATP1B1 [10]): 1.6 to 35 µM
